Among the data in ChEMBL document CHEMBL1158386, “Synthesis and biological evaluation of some thiazolidinone derivatives of steroid as antibacterial agents” (2009) are zone of inhibition and MIC values, retold here.

≈ marks a conversion by molar mass, not a printed value.

Test [1] concerns Staphylococcus aureus. Nature of the test: Antibacterial activity against Staphylococcus aureus at 30 ug/disk after 18 hrs by disk diffusion method. The following applies: read-out: IZ. It is filed as functional.
The subject of test [2] is Salmonella enterica subsp. enterica. The test is described as follows: Antibacterial activity against Salmonella Typhimurium at 30 ug/disk after 18 hrs by disk diffusion method. Particulars: read-out: IZ. Type of test: functional, Salmonella enterica subsp. enterica serovar Typhimurium.
Test [3] relates to Staphylococcus aureus. Nature of the test: Antibacterial activity against Staphylococcus aureus after 18 hrs by macro dilution test. It is filed as functional.
Test [4] relates to Escherichia coli. The test is described as follows: Antibacterial activity against Escherichia coli after 18 hrs by macro dilution test. Type of test: functional.
For test [5], the system named is Streptococcus pyogenes. Nature of the test: Antibacterial activity against Streptococcus pyogenes at 30 ug/disk after 18 hrs by disk diffusion method. Particulars: read-out: IZ. Type of test: functional. (In agar diffusion tests the substance spreads into inoculated agar from a disc or well.)
Test [6] concerns Salmonella enterica subsp. enterica. The test is described as follows: Antibacterial activity against Salmonella Typhimurium after 18 hrs by macro dilution test. Type of test: functional, Salmonella enterica subsp. enterica serovar Typhimurium.
In test [7] the test system is Streptococcus pyogenes. Nature of the test: Antibacterial activity against Streptococcus pyogenes after 18 hrs by macro dilution test. Type of test: functional.
In test [8] the test system is Escherichia coli. Nature of the test: Antibacterial activity against Escherichia coli at 30 ug/disk after 18 hrs by disk diffusion method. It is filed as functional. Particulars: read-out: IZ.
Test [9] deals with Staphylococcus aureus. Nature of the test: Antibacterial activity against Staphylococcus aureus at 100 ug/ml after 18 hrs by disk diffusion method. Type of test: functional. The following applies: read-out: IZ.
The test system of test [10] is Salmonella enterica subsp. enterica. The test is described as follows: Antibacterial activity against Salmonella Typhimurium at 100 ug/ml after 18 hrs by disk diffusion method. It is filed as functional, Salmonella enterica subsp. enterica serovar Typhimurium. Particulars: read-out: IZ.
The test system of test [11] is Escherichia coli. Nature of the test: Antibacterial activity against Escherichia coli at 100 ug/ml after 18 hrs by disk diffusion method. Type of test: functional. Particulars: read-out: IZ.
For test [12], the system named is Streptococcus pyogenes. The test is described as follows: Antibacterial activity against Streptococcus pyogenes at 100 ug/ml after 18 hrs by disk diffusion method. Type of test: functional. Particulars: read-out: IZ.

In general, MIC refers to the lowest concentration that inhibits growth of the organism. Lower therefore signals greater potency. As to `CC1(C)S[C@@H]2[C@H](NC(=O)[C@H](N)c3ccc(O)cc3)C(=O)N2[C@H]1C(=O)O` [AMOXICILLIN], the zone of inhibition at 30 µg/disc in the test on Staphylococcus aureus [1] worked out at 17 mm; in [2], 17.2 mm; in the test on Streptococcus pyogenes [5], 18.2 mm; in the test with Escherichia coli [8], 20.2 mm. The minimal inhibitory concentration (MIC) (with Staphylococcus aureus [3]; in the test on Escherichia coli [4]; in test [6]; in the test on Streptococcus pyogenes [7]) was 32 µg/mL (≈ 87.6 µM) in each case.
As to `CC(=O)O[C@H]1CC[C@@]2(C)[C@H](C1)/C(=N\NC(=S)NC1CCCC1)C[C@@H]1[C@@H]2CC[C@]2(C)[C@@H]([C@H](C)CCCC(C)C)CC[C@@H]12`, the zone of inhibition at 100 µg/mL with Staphylococcus aureus [9] is 12.6 mm; in test [10], 10.4 mm; with Escherichia coli [11], 13.3 mm; in the test with Streptococcus pyogenes [12], 11.4 mm.
Consider `CC(C)CCC[C@@H](C)[C@H]1CC[C@H]2[C@@H]3C/C(=N/NC(=S)NC4CCCC4)[C@H]4C[C@@H](Cl)CC[C@]4(C)[C@H]3CC[C@]12C`, for which the zone of inhibition at 100 µg/mL in the test on Staphylococcus aureus [9] was 11.5 mm; in test [10], 11.2 mm; in the test on Escherichia coli [11], 11.7 mm; in the test with Streptococcus pyogenes [12] it was 10.2 mm.
`CC(C)CCC[C@@H](C)[C@H]1CC[C@H]2[C@@H]3C/C(=N/N=C4\SCC(=O)N4C4CCCC4)[C@H]4C[C@@H](Cl)CC[C@]4(C)[C@H]3CC[C@]12C`: the zone of inhibition at 100 µg/mL came out at 20.4 mm with Staphylococcus aureus [9], 19.4 mm in test [10], 22.5 mm in the test with Escherichia coli [11] and 21.4 mm in the test with Streptococcus pyogenes [12]. Further, the MIC against Staphylococcus aureus [3] was 32 µg/mL (≈ 53.1 µM); in the test with Escherichia coli [4] it was 64 µg/mL (≈ 106 µM); in test [6] it was 64 µg/mL (≈ 106 µM); with Streptococcus pyogenes [7], 32 µg/mL (≈ 53.1 µM).
As for `CC(=O)O[C@H]1CC[C@@]2(C)[C@H](C1)/C(=N\N=C1/SCC(=O)N1C1CCCC1)C[C@@H]1[C@@H]2CC[C@]2(C)[C@@H]([C@H](C)CCCC(C)C)CC[C@@H]12`, the zone of inhibition at 100 µg/mL in the test with Staphylococcus aureus [9] came out at 18.5 mm; in test [10], 19.6 mm; in the test with Escherichia coli [11] it was 22.8 mm; in the test with Streptococcus pyogenes [12], 21.4 mm. In addition, the minimum inhibitory concentration (MIC) in the test on Staphylococcus aureus [3] was determined as 64 µg/mL (≈ 102 µM); in the test with Escherichia coli [4], 32 µg/mL (≈ 51.1 µM); in test [6], 64 µg/mL (≈ 102 µM); with Streptococcus pyogenes [7], 32 µg/mL (≈ 51.1 µM).
For `CC(C)CCC[C@@H](C)[C@H]1CC[C@H]2[C@@H]3C/C(=N/N=C4\SCC(=O)N4C4CCCC4)[C@H]4CCCC[C@]4(C)[C@H]3CC[C@]12C`, the zone of inhibition at 100 µg/mL came to 14.5 mm in the test on Staphylococcus aureus [9], 13.6 mm in [10], 14.2 mm with Escherichia coli [11] and 15.2 mm with Streptococcus pyogenes [12]. For the same compound, the minimum inhibitory concentration (MIC) (against Staphylococcus aureus [3]; in the test with Escherichia coli [4]; in test [6]; in the test with Streptococcus pyogenes [7]) was 128 µg/mL (≈ 225 µM) in each case.
For the compound `CC(C)CCC[C@@H](C)[C@H]1CC[C@H]2[C@@H]3C/C(=N/NC(=S)NC4CCCC4)[C@H]4CCCC[C@]4(C)[C@H]3CC[C@]12C`, the zone of inhibition at 100 µg/mL with Staphylococcus aureus [9] is 9.4 mm; in [10], 10.4 mm; with Escherichia coli [11], 12.3 mm; in the test with Streptococcus pyogenes [12], 10.2 mm.
